The values that follow come from patent US12673945B2, “3-((8-((1H-pyrazol-4-yl)amino)imidazo[1,2-a]pyridin-3-yl)ethinyl)-n-phenylbenzamide derivative, method for preparing same, and pharmaceutical composition containing same as active ingredient for prevention or treatment of cancer” (DAEGU-GYEONGBUK MEDICAL INNOVATION FOUNDATION, priority 2020, dated 2026).

What all share (assay type): cell-based
One assay deals with KOPM28 cells. In words: human CML cell proliferation inhibition. The following applies: 72 hours, Cell Counting Kit-8. The procedure, abridged:
(§1)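 Read-out: CCK-8, A450 after 2 h, expressed as % of vehicle-treated cells; GI50 fitted from 9-point curves. Compound exposure 72 h at 37 °C, final 0–10 μM, 5-fold dilutions. Bcr-Abl lines TCCS/KOPM28; T315I-Bcr-Abl lines T315I-TCCS/T315I-KOPM28.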
A general note: Formazan colour is commonly taken as a measure of viable cells.

In the next assay the test system is T315I-TCCS cells. In words: human CML cell proliferation inhibition. The note with it: 72 hours, Cell Counting Kit-8. The method in brief: as §1
The next assay relates to TCCS cells. In words: human CML cell proliferation inhibition. The note with it: 72 hours, Cell Counting Kit-8. The method in brief: as §1
The subject of another assay is T315I-KOPM28 cells. The experiment in a line: human CML cell proliferation inhibition. The following applies: 72 hours, Cell Counting Kit-8. The method in brief: as §1
The subject of a further assay is Parental (Ba/F3). In words: Ba/F3 cell proliferation inhibition. The following applies: BaF3; 72 hours, Cell Counting Kit-8. The method in brief: (§2)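 Parental and T315I-Bcr-Abl Ba/F3 cells, 1×10^4 per well, exposed 72 h at 37 °C to nine 3-fold dilutions, final 0 to 10 μM. Viability by CCK-8 after 2 h, absorbance 450 nm; GI50 fitted from percent of vehicle-treated cells.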

A further assay deals with T315I-Bcr-Abl (Ba/F3). In words: Ba/F3 cell proliferation inhibition. The following applies: BaF3; 72 hours, Cell Counting Kit-8. The method in brief:
as §2

What is called GI50 is the concentration that inhibits growth by half. Take `Cc1cc(F)c(C(=O)Nc2ccc(CN3CCN(CCO)CC3)c(C(F)(F)F)c2)cc1C#Cc1cnc2c(Nc3cnn(C)c3)cccn12` [Example 56, 2-fluoro-N-(4-((4-(2-hydroxyethyl)piperazin-1-yl)methyl)-3-(trifluoromethyl)phenyl)-4-methyl-5-((8-((1-methyl-1H-pyrazol-4-yl)amino)imidazo[1,2-a]pyridin-3-yl)ethynyl)benzamide]: the GI50 with KOPM28 cells is less than 10 nM; in the assay with T315I-TCCS cells, less than 10 nM; with TCCS cells, less than 10 nM; in the assay on T315I-KOPM28 cells, less than 10 nM; in the assay with Parental (Ba/F3), 500 to 5000 nM; with T315I-Bcr-Abl (Ba/F3) it was less than 50 nM.

Consider `Cc1cc(F)c(C(=O)Nc2ccc(CN3CCOCC3)c(C(F)(F)F)c2)cc1C#Cc1cnc2c(Nc3cnn(C)c3)cccn12` [Example 57, 2-fluoro-4-methyl-5-((8-((1-methyl-1H-pyrazol-4-yl)amino)imidazo[1,2-a]pyridin-3-yl)ethynyl)-N-(4-(morpholinomethyl)-3-(trifluoromethyl)phenyl)benzamide], for which the GI50 is less than 10 nM with KOPM28 cells; 100 nM in the assay on T315I-TCCS cells; 100 nM in the assay with TCCS cells; more than 100 nM with T315I-KOPM28 cells; more than 5000 nM in the assay on Parental (Ba/F3); 50 to 500 nM in the assay with T315I-Bcr-Abl (Ba/F3).

Turning to `Cc1cc(F)c(C(=O)Nc2ccc(CN3CCN(C)C(=O)C3)c(C(F)(F)F)c2)cc1C#Cc1cnc2c(Nc3cnn(C)c3)cccn12` [Example 58, 2-fluoro-4-methyl-5-((8-((1-methyl-1H-pyrazol-4-yl)amino)imidazo[1,2-a]pyridin-3-yl)ethynyl)-N-(4-((4-methyl-3-oxopiperazin-1-yl)methyl)-3-(trifluoromethyl)phenyl)benzamide], the GI50 in the assay on KOPM28 cells was less than 10 nM; in the assay on T315I-TCCS cells, 100 nM; in the assay with TCCS cells it was less than 10 nM; in the assay on T315I-KOPM28 cells it was 100 nM; with Parental (Ba/F3), more than 5000 nM; in the assay on T315I-Bcr-Abl (Ba/F3) it was less than 50 nM.

Turning to `Cc1cc(F)c(C(=O)Nc2ccc(CN3CCC(N(C)C)C3)c(C(F)(F)F)c2)cc1C#Cc1cnc2c(Nc3cnn(C)c3)cccn12` (stereo not drawn) [Example 59, N-(4-((3-(dimethylamino)pyrrolidine-1-yl)methyl)-3-(trifluoromethyl)phenyl)-2-fluoro-4-methyl-5-((8-((1-methyl-1H-pyrazol-4-yl)amino)imidazo[1,2-a]pyridin-3-yl)ethynyl)benzamide], the GI50 is less than 10 nM in the assay with KOPM28 cells; 100 nM with T315I-TCCS cells; less than 10 nM in the assay with TCCS cells; more than 100 nM in the assay on T315I-KOPM28 cells; more than 5000 nM in the assay with Parental (Ba/F3); 50 to 500 nM in the assay with T315I-Bcr-Abl (Ba/F3).

With `Cc1cc(F)c(C(=O)Nc2ccc(CN3CCN(S(C)(=O)=O)CC3)c(C(F)(F)F)c2)cc1C#Cc1cnc2c(Nc3cnn(C)c3)cccn12` [Example 60, 2-fluoro-4-methyl-5-((8-((1-methyl-1H-pyrazol-4-yl)amino)imidazo[1,2-a]pyridin-3-yl)ethynyl)-N-(4-((4-(methylsulfonyl)piperazin-1-yl)methyl)-3-(trifluoromethyl)phenyl)benzamide], the GI50 in the assay on KOPM28 cells is 100 nM; in the assay on T315I-TCCS cells, 100 nM; with TCCS cells, less than 10 nM; in the assay on T315I-KOPM28 cells, more than 100 nM; in the assay on Parental (Ba/F3), 500 to 5000 nM; in the assay on T315I-Bcr-Abl (Ba/F3), less than 50 nM.

Turning to `Cc1cc(F)c(C(=O)Nc2ccc(CN3CCCN(C)CC3)c(C(F)(F)F)c2)cc1C#Cc1cnc2c(Nc3cnn(C)c3)cccn12` [Example 61, 2-fluoro-4-methyl-N-(4-((4-methyl-1,4-diazepan-1-yl)methyl)-3-(trifluoromethyl)phenyl)-5-((8-((1-methyl-1H-pyrazol-4-yl)amino)imidazo[1,2-a]pyridin-3-yl)ethynyl)benzamide], the 50% growth inhibitory concentration (GI50) is less than 10 nM in the assay on KOPM28 cells; 100 nM with T315I-TCCS cells; less than 10 nM in the assay with TCCS cells; less than 10 nM in the assay with T315I-KOPM28 cells; 500 to 5000 nM in the assay with Parental (Ba/F3); less than 50 nM with T315I-Bcr-Abl (Ba/F3).

As for `Cc1cc(F)c(C(=O)Nc2ccc(CN3CC(OC(C)C)C3)c(C(F)(F)F)c2)cc1C#Cc1cnc2c(Nc3cnn(C)c3)cccn12` [Example 62, 2-fluoro-N-(4-((3-isopropoxyazetidin-1-yl)methyl)-3-(trifluoromethyl)phenyl)-4-methyl-5-((8-((1-methyl-1H-pyrazol-4-yl)amino)imidazo[1,2-a]pyridin-3-yl)ethynyl)benzamide], the GI50 with KOPM28 cells is less than 10 nM; in the assay with T315I-TCCS cells, more than 100 nM; with TCCS cells, less than 10 nM; in the assay on T315I-KOPM28 cells, more than 100 nM; in the assay on Parental (Ba/F3), more than 5000 nM; in the assay on T315I-Bcr-Abl (Ba/F3), 500 to 5000 nM.

Consider `Cc1cc(F)c(C(=O)Nc2ccc(Cn3ccnc3)c(C(F)(F)F)c2)cc1C#Cc1cnc2c(Nc3cnn(C)c3)cccn12` [Example 63, N-(4-((1H-imidazol-1-yl)methyl)-3-(trifluoromethyl)phenyl)-2-fluoro-4-methyl-5-((8-((1-methyl-1H-pyrazol-4-yl)amino)imidazo[1,2-a]pyridin-3-yl)ethynyl)benzamide], for which the GI50 in the assay on KOPM28 cells was less than 10 nM; in the assay with T315I-TCCS cells it was more than 100 nM; with TCCS cells, less than 10 nM; in the assay with T315I-KOPM28 cells, more than 100 nM; in the assay with Parental (Ba/F3), more than 5000 nM; in the assay with T315I-Bcr-Abl (Ba/F3), 500 to 5000 nM.

Consider `Cc1cc(F)c(C(=O)Nc2ccc(Cn3cncn3)c(C(F)(F)F)c2)cc1C#Cc1cnc2c(Nc3cnn(C)c3)cccn12` [Example 64, N-(4-((1H-1,2,4-triazol-1-yl)methyl)-3-(trifluoromethyl)phenyl)-2-fluoro-4-methyl-5-((8-((1-methyl-1H-pyrazol-4-yl)amino)imidazo[1,2-a]pyridin-3-yl)ethynyl)benzamide], for which the GI50 with KOPM28 cells is less than 10 nM; with T315I-TCCS cells it was 100 nM; in the assay with TCCS cells, less than 10 nM; in the assay on T315I-KOPM28 cells, more than 100 nM; in the assay on Parental (Ba/F3), more than 5000 nM; with T315I-Bcr-Abl (Ba/F3), 50 to 500 nM.

As for `Cc1cc(F)c(C(=O)Nc2ccc(Oc3ccncc3)c(C(F)(F)F)c2)cc1C#Cc1cnc2c(Nc3cnn(C)c3)cccn12` [Example 65, 2-fluoro-4-methyl-5-((8-((1-methyl-1H-pyrazol-4-yl)amino)imidazo[1,2-a]pyridin-3-yl)ethynyl)-N-(4-(pyridin-4-yloxy)-3-(trifluoromethyl)phenyl)benzamide], the GI50 with KOPM28 cells was less than 10 nM; in the assay with T315I-TCCS cells it was 100 nM; with TCCS cells, less than 10 nM; with T315I-KOPM28 cells, 100 nM; in the assay on Parental (Ba/F3), more than 5000 nM; in the assay on T315I-Bcr-Abl (Ba/F3), 50 to 500 nM.

`Cc1cc(F)c(C(=O)Nc2cc(CN3CCOCC3)cc(C(F)(F)F)c2)cc1C#Cc1cnc2c(Nc3cnn(C)c3)cccn12` [Example 66, 2-fluoro-4-methyl-5-((8-((1-methyl-1H-pyrazol-4-yl)amino)imidazo[1,2-a]pyridin-3-yl)ethynyl)-N-(3-(morpholinomethyl)-5-(trifluoromethyl)phenyl)benzamide]: the concentration for 50% growth inhibition (GI50) in the assay on KOPM28 cells is less than 10 nM; in the assay on T315I-TCCS cells, more than 100 nM; in the assay with TCCS cells, less than 10 nM; in the assay with T315I-KOPM28 cells, more than 100 nM; with Parental (Ba/F3), more than 5000 nM; in the assay on T315I-Bcr-Abl (Ba/F3), 50 to 500 nM.

Take `Cc1cc(F)c(C(=O)Nc2cc(CN3CCCN(C)CC3)cc(C(F)(F)F)c2)cc1C#Cc1cnc2c(Nc3cnn(C)c3)cccn12` [Example 67, 2-fluoro-4-methyl-N-(3-((4-methyl-1,4-diazepan-1-yl)methyl)-5-(trifluoromethyl)phenyl)-5-((8-((1-methyl-1H-pyrazol-4-yl)amino)imidazo[1,2-a]pyridin-3-yl)ethynyl)benzamide]: the GI50 in the assay with KOPM28 cells is less than 10 nM; with T315I-TCCS cells, 100 nM; in the assay on TCCS cells, less than 10 nM; in the assay on T315I-KOPM28 cells, 100 nM; with Parental (Ba/F3), 500 to 5000 nM; with T315I-Bcr-Abl (Ba/F3), 50 to 500 nM.

For `Cc1cc(F)c(C(=O)Nc2cc(CN3CCC(N(C)C)C3)cc(C(F)(F)F)c2)cc1C#Cc1cnc2c(Nc3cnn(C)c3)cccn12` (stereo not drawn) [Example 68, N-(3-((3-(dimethylamino)pyrrolidin-1-yl)methyl)-5-(trifluoromethyl)phenyl)-2-fluoro-4-methyl-5-((8-((1-methyl-1H-pyrazol-4-yl)amino)imidazo[1,2-a]pyridin-3-yl)ethynyl)benzamide], the concentration for 50% growth inhibition (GI50) in the assay with KOPM28 cells was less than 10 nM; with T315I-TCCS cells, 100 nM; in the assay with TCCS cells, less than 10 nM; in the assay with T315I-KOPM28 cells, 100 nM; in the assay with Parental (Ba/F3) it was 500 to 5000 nM; with T315I-Bcr-Abl (Ba/F3) it was less than 50 nM.

Turning to `Cc1cc(F)c(C(=O)Nc2cc(CN3CCN(CCO)CC3)cc(C(F)(F)F)c2)cc1C#Cc1cnc2c(Nc3cnn(C)c3)cccn12` [Example 69, 2-fluoro-N-(3-((4-(2-hydroxyethyl)piperazin-1-yl)methyl)-5-(trifluoromethyl)phenyl)-4-methyl-5-((8-((1-methyl-1H-pyrazol-4-yl)amino)imidazo[1,2-a]pyridin-3-yl)ethynyl)benzamide], the concentration for 50% growth inhibition (GI50) in the assay on KOPM28 cells is less than 10 nM; in the assay with T315I-TCCS cells it was more than 100 nM; in the assay with TCCS cells, 100 nM; in the assay on T315I-KOPM28 cells, more than 100 nM; with Parental (Ba/F3), more than 5000 nM; with T315I-Bcr-Abl (Ba/F3) it was 50 to 500 nM.

Take `Cc1cc(F)c(C(=O)Nc2cc(CN3CCN(S(C)(=O)=O)CC3)cc(C(F)(F)F)c2)cc1C#Cc1cnc2c(Nc3cnn(C)c3)cccn12` [Example 70, 2-fluoro-4-methyl-5-((8-((1-methyl-1H-pyrazol-4-yl)amino)imidazo[1,2-a]pyridin-3-yl)ethynyl)-N-(3-((4-(methylsulfonyl)piperazin-1-yl)methyl)-5-(trifluoromethyl)phenyl)benzamide]: the GI50 is less than 10 nM in the assay with KOPM28 cells; more than 100 nM in the assay with T315I-TCCS cells; less than 10 nM in the assay with TCCS cells; more than 100 nM with T315I-KOPM28 cells; more than 5000 nM in the assay with Parental (Ba/F3); 50 to 500 nM with T315I-Bcr-Abl (Ba/F3).
